Reference: patent publication US11065266B2, “Method of treating melanoma using an inhibitor of an atypical protein kinase C” (UNIVERSITY OF SOUTH FLORIDA, priority 2016, dated 2021)

How the values were obtained:
SK-MEL-2 cells [1] = assay: Wound healing assay; assay type: cell-based, human; conditions: for scratch coverage in wound healing assay: two days; for wound closure: 2.5 μM, day 3 or 4, p≤0.01
Protocol: For the wound-healing assay, melanoma cells were seeded into 35 mm dishes in 6-well-plates. After the cells had reached 100% confluency, the wound-healing assay was performed with a sterile pipette tip (1-10 μL pipette tip) by making a scratch through the confluent monolayer. Subsequently, the cells were washed with DPBS and fresh medium (EMEM) was added to each well and the desired amount of inhibitor was added in order to achieve the final concentrations of 50 nM, 100 nM, 200 nM, 500 nM and 1 μM against the control. Cells were cultured for 48 h. In 24 hours intervals, pictures of wound closure were taken and the percentage of wound closure was calculated in three randomly chosen fields.
The scratch was even clearer after two days in 1 μM sample compared to 200 nM sample. Also the number of dead cells floating was highest in 1 μM, followed by 200 nM; whereas, floating cells were rarely observed in the control samples.
A wound healing assay was performed to investigate the effect of ACPD and DNDA on malignant melanoma cell migration in vitro. Wound healing assay is commonly used to investigate in vitro migration of cancer cells. For the wound-healing assay, melanoma cells were seeded into 35 mm dishes in 6-well-plates. After the cells had reached 100% confluency, the wound-healing assay was performed with a sterile pipette tip (1-10 μL pipette tip) by making a scratch through the confluent monolayer. Subsequently, the cells were washed with DPBS and fresh medium (EMEM) was added to each well and the desired amount of inhibitor was added. Each well was subsequently incubated with sterile water or desired amount of ICA-1, ACPD, DNDA, or c-Stat to achieve the final concentration of the half maximal inhibitory concentration (IC50) for each inhibitor. Plates were incubated at 37 ° C. and 5% CO2 and photographs of wound closure were taken utilizing a Motic AE31E microscope (40× magnification). The percentage of wound closure was calculated after 3 or 4 days.
In one set of experiments, cells were cultured for 48 h. In 24 hours intervals, pictures of wound closure were taken and the percentage of wound closure was calculated in three randomly chosen fields. […] In each figure, cells treated with ACPD 2.5 μM and DNDA 2.5 μM were compared with their respective controls. The areas of the scratch (wound) were calculated and compared to determine the statistical significance (FIG. 8C).

SK-MEL-2 cells [2] = assay: Western blot of protein levels; assay type: cell-based, human; parameters: reduction of PKC-ι level / reduction of pPKC-ι level / reduction of PKC-ζ level / reduction of pPKC-ζ level: concentration or dose not given beside the values; conditions: for reduction of PKC-ζ level / reduction of PKC-ι level / reduction of pPKC-ζ level / reduction of pPKC-ι level: vs respective control
Protocol: Approximately 2×10^5 cells from PCS-200-013 and SK-MEL-2 cell lines were plated in T25 flasks until they become 70% confluent. Confluent cells were semi-synchronized by contact inhibition and serum starvation for 48 hrs. Subsequently, cells were incubated with serum and atypical inhibitors. The cells were removed at specific times and were placed in ice to terminate the incubation. Cells were washed at least two times with ice cold DPBS. Cells were then scrapped, re-suspended and sonicated in 500 μL of homogenization buffer (50 mM HEPES—pH 7.5), 150 mM NaCl, 0.1% Triton X, 1 mM EDTA (ethylenediaminetetraacetic acid), 2 mM EGTA [glycol-bis (2-aminoethylether)-N, N, N′,N′-tetraacetic acid], 0.1 mM orthovanadate, 1 mM NaF, 2 mM PMSF (phenylmethylsulphonylfluoride), 1 mM DTT (dithiothreitol) and 0.15 U/mL aprotinin. Cell suspensions was then sonicated and centrifuged at 100,000 g for 30 minutes. The protein concentrations was determined using Bradford method. Subsequently, approximately 800 μg of proteins were immunoprecipitated with the antibody against desired protein. In some cases cell lysates were suspended with anti-HFS-1 antibody, rocking overnight at 4° C. Agarose beds were added after 24 hrs. Then the complex of cell lysate-anti HSF-1 antibody-agarose beads was rocked at 4° C. for 2 hrs. After washing the beads, approximately […] the sample loading buffer was added to dissolve all the protein on the beads. Proteins were then separated on sodium dodecyl sulfate polyacrylamide gel electrophoresis (SDS-PAGE) and transblotted followed by immunoblotting with anti-PKC-ζ or anti-PKC-ι or anti-HSF-1 antibody or phosphospecific antibodies. Immunoreactive bands were visualized with enhanced chemiluminescence. […]
Western blots (WB) were performed to investigate the effect of ACPD and DNDA on the expression of aPKCs on malignant melanoma. […] DNDA decreased the levels of PKC-ι by 52%, pPKC-ι by 33% in SK-MEL-2 cells and by 27% of PKC-ι and pPKC-ι by 20% in MeWo cells.
DNDA reduced the levels of PKC-ζ by 33%, pPKC-ζ by only 17% in SK-MEL-2 cells and by 60% of PKC-ζ and pPKC-ζ by 29% in MeWo cells. All values (percent) were calculated compared to their respective control in Western blot. B-actin was used as the internal control to ensure that equal amounts of proteins were loaded in each lane in SDS-PAGE.

[3] = upon increasing concentration, vs control

CC(=O)C1=C(O)CCC1=O [ACPD, 2-acetyl-1,3-cyclopentanedione]
scratch coverage in wound healing assay (SK-MEL-2 cells [1]; 200 nM): not completely covered | scratch coverage in wound healing assay (SK-MEL-2 cells [1]; 1 μM): not completely covered | wound closure (SK-MEL-2 cells [1]): significantly reduce the wound closure | decrease of Bcl-2 levels (SK-MEL-2 cells [2]): 13% | decrease of CD44 (SK-MEL-2 cells [2]): 19% | decrease of PARP levels (SK-MEL-2 cells [2]): 33% | decrease of Vimentin levels (SK-MEL-2 cells [2]): 51% | decrease of β-catenin (SK-MEL-2 cells [2]): 39% | increase of Caspase-3 levels (SK-MEL-2 cells [2]): 26% | increase of E-cadherin levels (SK-MEL-2 cells [2]): 18% | increase of NF-KB p65 levels (SK-MEL-2 cells [2]): 31% | increase of cleaved PARP levels (SK-MEL-2 cells [2]): 14% | PKC-ζ level (SK-MEL-2 cells [2]; [3]): decreased | PKC-ι level (SK-MEL-2 cells [2]; [3]): good decrease | reduction of PKC-ζ level (SK-MEL-2 cells [2]): 42% | reduction of PKC-ι level (SK-MEL-2 cells [2]): 43% | reduction of pPKC-ζ level (SK-MEL-2 cells [2]): 29% | reduction of pPKC-ι level (SK-MEL-2 cells [2]): 31%

Nc1c(S(=O)(=O)O)cc2cc(S(=O)(=O)O)ccc2c1N [DNDA, 3,4-diamino-2,7-naphthalenedisulfonic acid]
wound closure (SK-MEL-2 cells [1]): significantly reduce the wound closure | decrease of Bcl-2 levels (SK-MEL-2 cells [2]): 7% | decrease of CD44 (SK-MEL-2 cells [2]): 27% | decrease of Vimentin levels (SK-MEL-2 cells [2]): 49% | decrease of β-catenin (SK-MEL-2 cells [2]): 13% | increase of Caspase-3 levels (SK-MEL-2 cells [2]): 32% | increase of E-cadherin levels (SK-MEL-2 cells [2]): 28% | increase of NF-KB p65 levels (SK-MEL-2 cells [2]): 49% | increase of PARP levels (SK-MEL-2 cells [2]): 12% | increase of cleaved PARP levels (SK-MEL-2 cells [2]): 16% | reduction of PKC-ζ level (SK-MEL-2 cells [2]): 33% | reduction of PKC-ι level (SK-MEL-2 cells [2]): 52% | reduction of pPKC-ζ level (SK-MEL-2 cells [2]): 17% | reduction of pPKC-ι level (SK-MEL-2 cells [2]): 33%
